This note sets out measurements from patent USRE47689E1, “Compounds for treating spinal muscular atrophy” (PTC Therapeutics, Inc., priority 2011, dated 2019).

One may read the melting point as the temperature of the solid-liquid transition.

Data set [1] deals with SMN2 minigene (full length SMN2 minigene mRNA containing SMN2 exon 7). The experiment in a line: SMN2 minigene mRNA splicing RT-qPCR assay in cultured cells. The format is cell-based, human. As to conditions: Homo sapiens, HEK293-H; HEK293H cells stably transfected with SMN2-A minigene; 24 hours; 7-point concentration curve; 1.5-fold relative to vehicle-treated cells; read-out: EC1.5x for production of full length SMN2 mRNA. In a few lines:
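Full-length SMN2 minigene mRNA (exon 7 included), minigene-specific and not endogenous SMN, quantified by RT-qPCR multiplexed with GAPDH in stably transfected HEK293H cells after 24 h compound exposure at 37° C. Abundance from efficiency-corrected Ct, normalized to GAPDH and vehicle; EC1.5x reported as star bins.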
(Real-time PCR tracks product formation cycle by cycle.)

For a further data set, the system named is Smn protein. As to the kind of experiment: Smn protein assay in cultured cells (SMN HTRF). It is filed as cell-based, human. As to conditions: 48 hours; for EC1.5x (concentration giving 1.5-fold Smn protein increase): SMA Type 1 patient fibroblast cells (GM03813), 7-point concentration curve, SMN HTRF, concentration producing 1.5 times Smn protein vs DMSO vehicle control, read-out: EC1.5x for Smn protein expression; for maximum fold (Fold) increase of Smn protein: SMA patient fibroblast cells, 7-point concentration data, fold increase relative to vehicle control (SMN HTRF). In a few lines:
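Smn in SMA fibroblast lysates, measured by anti-SMN HTRF after 48 h compound exposure; EC1.5x from fold change over vehicle.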

Take `Cc1cc2cc(-c3cc4ccc(N5CCN[C@H](C)C5)cc4oc3=O)oc2c(C)n1` [Compound 806, 3-(5,7-dimethylfuro[2,3-c]pyridin-2-yl)-7-[(3R)-3-methylpiperazin-1-yl]-2H-chromen-2-one]: the melting point fell in the range of 251 to 256 °C. Moreover, in data set [1], the EC (1.5-fold) is under 0.1 µM. Also, in the data set with Smn protein, the EC1.5x (concentration giving 1.5-fold Smn protein increase) is under 300 nM and the “maximum fold (Fold) increase of Smn protein” value (“maximum fold (Fold) increase” below) is listed as “***** (fold increase >1.65)”.

Compound `Cc1ccc2nc(-c3cc4cc(F)c(N5CCNCC5)cc4oc3=O)cn2c1` [Compound 158, 6-fluoro-3-(6-methylimidazo[1,2-a]pyridin-2-yl)-7-(piperazin-1-yl)-2H-chromen-2-one] registered a melting point of 245 to 250 °C. In addition, in data set [1], the EC (1.5-fold) was 1 to 3 µM. The “maximum fold (Fold) increase” value in the data set with Smn protein is “** (fold increase between >1.2 and ≤1.35)”.

On to `Cc1cn2cc(-c3cc4ccc(CCCN(C)C)cc4oc3=O)ccc2n1` [Cpd 908, 7-[3-(dimethylamino)propyl]-3-(2-methylimidazo[1,2-a]pyridin-6-yl)-2H-chromen-2-one], for which the melting point fell in the range of 176 to 178 °C. Further, the EC (1.5-fold) in data set [1] was 0.1 to 0.3 µM. Further, in the data set on Smn protein, the EC1.5x (concentration giving 1.5-fold Smn protein increase) is 300 to 1000 nM and the “maximum fold (Fold) increase” value was “***** (fold increase >1.65)”.

`Cc1cn2cc(-c3cc4ccc(O[C@@H]5CCN(CCO)C5)cc4oc3=O)nc2c(C)n1` [Compound 892, 3-(6,8-dimethylimidazo[1,2-a]pyrazin-2-yl)-7-{[(3R)-1-(2-hydroxyethyl)pyrrolidin-3-yl]oxy}-2H-chromen-2-one]: the melting point fell in the range of 190 to 196 °C. The EC (1.5-fold) in data set [1] was under 0.1 µM. In the data set on Smn protein, the EC1.5x (concentration giving 1.5-fold Smn protein increase) was under 300 nM; the “maximum fold (Fold) increase” value was “**** (fold increase between >1.5 and ≤1.65)”.

In turn, `COc1cccc(-c2cc3ccc(N4C[C@@H](C)N[C@@H](C)C4)cc3oc2=O)n1` [Compound 315, 7-[(3R,5S)-3,5-dimethylpiperazin-1-yl]-3-(6-methoxypyridin-2-yl)-2H-chromen-2-one] came in with a melting point of 175 to 177 °C. The EC (1.5-fold) in data set [1] lay within 0.3 to 1 µM. In addition, in the data set with Smn protein, the “maximum fold (Fold) increase” value is “* (maximum fold increase of ≤1.2)”.

`Cc1cn2cc(-c3cc4ccc(N5CCC(N(C)C)CC5)cc4oc3=O)cc2cn1` [Compound 716, 7-[4-(dimethylamino)piperidin-1-yl]-3-(3-methylpyrrolo[1,2-a]pyrazin-7-yl)-2H-chromen-2-one] came in with a melting point of 224 to 227 °C. In addition, the EC (1.5-fold) in data set [1] is under 0.1 µM. For the same compound, in the data set on Smn protein, the EC1.5x (concentration giving 1.5-fold Smn protein increase) was 1000 to 3000 nM; the “maximum fold (Fold) increase” value was “**** (fold increase between >1.5 and ≤1.65)”.

`C[C@@H]1CN(c2ccc3cc(-c4cn(-c5ccccn5)cn4)c(=O)oc3c2)C[C@H](C)N1` [Cpd 433, 7-[(3R,5S)-3,5-dimethylpiperazin-1-yl]-3-[1-(pyridin-2-yl)-1H-imidazol-4-yl]-2H-chromen-2-one] showed a melting point of 201 to 206 °C. In addition, the EC (1.5-fold) in data set [1] lay in the range of 3 to 30 µM. Moreover, the “maximum fold (Fold) increase” value with Smn protein was “* (maximum fold increase of ≤1.2)”.

As to `CC(C)NC(C)c1ccc2cc(-c3nc4ccccc4s3)c(=O)oc2c1` (centres unmarked) [Compound 144, 3-(1,3-benzothiazol-2-yl)-7-[1-(propan-2-ylamino)ethyl]-2H-chromen-2-one], the melting point was 135 to 137 °C. Further, the EC (1.5-fold) in data set [1] fell in the range of 1 to 3 µM. Also, the “maximum fold (Fold) increase” value in the data set on Smn protein is “* (maximum fold increase of ≤1.2)”.

Consider `Cc1cc2cc(-c3cc4ccc(N5CCN(C(C)C)CC5)cc4oc3=O)oc2c(C)n1` [Compound 789, 3-(5,7-dimethylfuro[2,3-c]pyridin-2-yl)-7-[4-(propan-2-yl)piperazin-1-yl]-2H-chromen-2-one], for which the melting point was 186 to 189 °C. Moreover, in data set [1], the EC (1.5-fold) is under 0.1 µM. Moreover, the “maximum fold (Fold) increase” value with Smn protein was “*** (fold increase between >1.35 and ≤1.5)”.

The compound `Cc1cn2cc(-c3cc4ccc(N5C[C@H]6CNC[C@H]6C5)cc4oc3=O)nc2c(C)n1` [Compound 686, 3-(6,8-dimethylimidazo[1,2-a]pyrazin-2-yl)-7-[(3aR,6aS)-hexahydropyrrolo[3,4-c]pyrrol-2(1H)-yl]-2H-chromen-2-one] displayed a melting point of 250 to 260 °C. The EC (1.5-fold) in data set [1] is under 0.1 µM. Moreover, in the data set with Smn protein, the EC1.5x (concentration giving 1.5-fold Smn protein increase) is under 300 nM and the “maximum fold (Fold) increase” value was “***** (fold increase >1.65)”.

On to `Cc1cn2cc(-c3cc4ccc(N5C[C@@H](C)N[C@@H](C)C5)cc4oc3=O)nc2s1` [Compound 152, 7-[(3R,5S)-3,5-dimethylpiperazin-1-yl]-3-(2-methylimidazo[2,1-b][1,3]thiazol-6-yl)-2H-chromen-2-one], for which the melting point was 210 to 212 °C. The EC (1.5-fold) in data set [1] is under 0.1 µM. In the data set on Smn protein, the EC1.5x (concentration giving 1.5-fold Smn protein increase) was 1000 to 3000 nM; the “maximum fold (Fold) increase” value was “*** (fold increase between >1.35 and ≤1.5)”.

Take `Cc1ccn2nc(-c3cc4ccc(N5C[C@@H](C)N[C@@H](C)C5)cc4oc3=O)cc2c1` [Compound 304, 7-[(3R,5S)-3,5-dimethylpiperazin-1-yl]-3-(5-methylpyrazolo[1,5-a]pyridin-2-yl)-2H-chromen-2-one]: the melting point was 200 to 202 °C. For the same compound, the EC (1.5-fold) in data set [1] lay in the range of 0.1 to 0.3 µM. Also, in the data set on Smn protein, the EC1.5x (concentration giving 1.5-fold Smn protein increase) is 1000 to 3000 nM; the “maximum fold (Fold) increase” value was “*** (fold increase between >1.35 and ≤1.5)”.

`CN1CCCN(c2cc(F)c3cc(-c4cn5ccsc5n4)c(=O)oc3c2)CC1` [Compound 373, 5-fluoro-3-(imidazo[2,1-b][1,3]thiazol-6-yl)-7-(4-methyl-1,4-diazepan-1-yl)-2H-chromen-2-one] returned a melting point of 205 to 207 °C. Further, the EC (1.5-fold) in data set [1] was under 0.1 µM. Also, in the data set with Smn protein, the EC1.5x (concentration giving 1.5-fold Smn protein increase) was 300 to 1000 nM; the “maximum fold (Fold) increase” value is “**** (fold increase between >1.5 and ≤1.65)”.

The compound `O=c1oc2cc(N3CCNCC3)cc(F)c2cc1-c1nc2c(F)cccc2o1` [Compound 292, 5-fluoro-3-(4-fluoro-1,3-benzoxazol-2-yl)-7-(piperazin-1-yl)-2H-chromen-2-one] displayed a melting point of 225 to 230 °C. The EC (1.5-fold) in data set [1] is 0.3 to 1 µM. In the data set with Smn protein, the “maximum fold (Fold) increase” value was “*** (fold increase between >1.35 and ≤1.5)”.

With `COc1ccc(-c2cc3ccc(N4CCN[C@H](C)C4)cc3oc2=O)cc1OC` [Compound 382, 3-(3,4-dimethoxyphenyl)-7-[(3R)-3-methylpiperazin-1-yl]-2H-chromen-2-one], the melting point was 143 to 145 °C. In addition, the EC (1.5-fold) in data set [1] was in the range of 1 to 3 µM. The “maximum fold (Fold) increase” value with Smn protein is given as “* (maximum fold increase of ≤1.2)”.

With `Cc1cc(Cl)cn2cc(-c3cc4ccc(N5CCN(C)CC5)cc4oc3=O)nc12` [Compound 264, 3-(6-chloro-8-methylimidazo[1,2-a]pyridin-2-yl)-7-(4-methylpiperazin-1-yl)-2H-chromen-2-one], the melting point came to 238 °C. The EC (1.5-fold) in data set [1] fell in the range of 1 to 3 µM. Also, in the data set with Smn protein, the “maximum fold (Fold) increase” value is on record as “* (maximum fold increase of ≤1.2)”.
